Assay results from the SangsterLogP compilation.
Each block holds one compound with its values, some of them ahead of it.

Columns and labels:
[1] = method code SF-HPLC, from DOI: 10.1007/s00216-006-0868-5, PMID: 17082876
[2] = method code SF-HPLC, from PMID: 9554875; conditions: pH 6.8
[3] = method code SF-NMR, from DOI: 10.1002/jps.2600751016, PMID: 3795031
[4] = method code SF-HPLC, from PMID: 2780588
[5] = not given; remark: listed apart in the source
[6] = method code SF-AS, from DOI: 10.1007/s001289900158, PMID: 8661463
[7] = method code SF-AS, from DOI: 10.1021/jm00253a014, PMID: 4151967; conditions: pH 7.4
[8] = not given; remark: listed apart in the source
[9] = not given; remark: listed apart in the source
[10] = method code SF-HPLC, from DOI: 10.1016/0045-6535(86)90532-1; conditions: pH 6.5
[11] = method code SF-AS, from PMID: 10944786; conditions: pH 7.0
[12] = method code SF, from DOI: 10.1016/s0968-0896(00)00025-0, PMID: 10882003
[13] = not given; remark: listed apart in the source
[14] = method code SF-AS, from DOI: 10.1016/j.ejmech.2011.02.056, PMID: 21420207
[15] = method code SF-AS, from DOI: 10.1002/jps.2600710122
[16] = not given; remark: listed apart in the source
[17] = method code SF-AS, from DOI: 10.1021/jm00234a001, PMID: 1003419
[18] = method code SF-AS, from DOI: 10.1021/jm00291a017, PMID: 5140011
[19] = method code SF-AS, from DOI: 10.1002/chin.199416148, PMID: 8117185
[20] = method code SF, from Yoshimoto, M. (1982). Quantitative structure-activity relationships and structure patterns of drugs. SankyoÌ„ KenkyuÌ„jo nenpoÌ„ (Annual report of Sankyo Research Laboratories), 34, 1-38.

SMILES: Cc1ccc(S(=O)(=O)Cl)cc1
- logP [1]: 3.25

SMILES: Cc1cc(C)c2c(c1)COP(=O)(OCC1C=CC(n3cc(C)c(=O)[nH]c3=O)O1)O2 (configuration not stated)
- logD [2]: 1.18

SMILES: COC(N)=O
- logP: -0.64

SMILES: C=Cc1ccccc1C=C
- logP [1]: 3.49

SMILES: CC(CCO)CC(F)(F)F (configuration not stated)
- logP [3]: 1.61

SMILES: OCCO
- logP: -1.21

SMILES: CCN(CC)c1nc(NN)nc(NN)n1
- logP [6]: 1.22

SMILES: COC1=C(C)C(=O)c2c(c(COC(N)=O)c3n2CCC3)C1=O
- logD [7]: 1.71

SMILES: COP(=O)(NC(C)=O)SC (configuration not stated)
- logP [9]: -0.46

SMILES: CCNC(N)=S
- logD [10]: -0.21

SMILES: OCCCCCCO
- logP: -0.02

SMILES: O=c1cccc[nH]1
- logP [12]: -0.56

SMILES: OCCCCCC(F)(F)F
- logP [3]: 1.64

SMILES: COc1ccc2c(c1)COP(=O)(OCC1C=CC(n3cc(C)c(=O)[nH]c3=O)O1)O2 (configuration not stated)
- logD [2]: 0.36

SMILES: COc1cc(CNC(=O)CCCC/C=C/C(C)C)ccc1O
- logP [4]: 3.04

SMILES: Cc1ccc2c(c1)COP(=O)(OCC1C=CC(n3cc(C)c(=O)[nH]c3=O)O1)O2 (configuration not stated)
- logD [2]: 0.73

SMILES: CNC(=O)O/N=C/C(C)(C)SC
- logP [9]: 1.19

SMILES: CC1=C(N)C(=O)c2c(COC(N)=O)c3n(c2C1=O)CCC3O (configuration not stated)
- logD [7]: 0.64

SMILES: c1ccc2cc3cc4ccccc4cc3cc2c1
- logP [5]: 5.76

SMILES: OCCN1CCN(CCCN2c3ccccc3Sc3ccc(Cl)cc32)CC1
- logP [13]: 4.25

SMILES: O=C(Nc1n[nH]c(NC(=O)c2ccc([N+](=O)[O-])cc2)n1)c1ccc([N+](=O)[O-])cc1
- logP [15]: 0.55

SMILES: Cc1cccc2c1ccc1ccccc12
- logP [5]: 5.08

SMILES: CCn1c(C)c(COC(N)=O)c2c1C(=O)C(C)=C(OC)C2=O
- logD [7]: 1.81

SMILES: CCCCCCCCC(=O)NCc1ccc(O)c(OC)c1
- logP [4]: 2.96

SMILES: CCNC(=S)NCC
- logD [10]: 0.57

SMILES: CC(O)CC(F)(F)F (configuration not stated)
- logP [3]: 0.71

SMILES: Cc1cccc(=O)[nH]1
- logP [12]: -0.04

SMILES: CCCCC(N)=O
- logP: 0.37

SMILES: CCCOC(=O)NCCCN(C)C
- logP [9]: 2.43

SMILES: Oc1c(I)cc(I)c(O)c1I
- logP [17]: 1.68

SMILES: S=C1CCCCN1
- logP [18]: 0.13

SMILES: O=C(Nc1n[nH]c(NC(=O)C(F)(F)F)n1)C(F)(F)F
- logP [15]: 0.62

SMILES: CC(C(=O)CCN(C)C)N1C(=O)C2CC=CCC2C1=O (configuration not stated)
- logP [19]: 0.77

SMILES: CN1CCN(CCCN2c3ccccc3Sc3ccc(Cl)cc32)CC1
- logP [13]: 4.79

SMILES: S=C1CCCCCCN1
- logP [18]: 1

SMILES: O=C(CCN1CCCCC1)CN1C(=O)CC(c2ccc(Cl)cc2)C1=O (configuration not stated)
- logP [19]: 2.23

SMILES: O=C(Nc1ccccc1)C(=O)Nc1ccccc1
- logP [1]: 2

SMILES: O=C1C(Cl)=C(Cl)C(=O)C(Cl)=C1Cl
- logP [1]: 2.19

SMILES: Cc1cccc2sc3nncn3c12
- logP [9]: 2.07

SMILES: CCOC(=O)c1cc(C#N)c(=O)[nH]c1C(F)(F)F
- logP [12]: 2.08

SMILES: CCC(=O)Nc1n[nH]c(NC(=O)CC)n1
- logP [15]: -0.07

SMILES: S=C1CCCCCN1
- logP [18]: 0.75

SMILES: O=c1cccc(Cl)[nH]1
- logD ([12]; pH 7.4): 0.78

SMILES: CN(C)C(N)=S
- logD [10]: -0.43

SMILES: Cc1cn(C2C=CC(COP3(=O)OCc4ccccc4O3)O2)c(=O)[nH]c1=O (configuration not stated)
- logD [2]: 0.28

SMILES: CCCOc1ccccc1NC(=O)OCN1CCCCC1
- logD [11]: 2.33

SMILES: CC(NCCC(c1ccccc1)c1ccccc1)c1ccccc1 (configuration not stated)
- logP [13]: 4.89

SMILES: O=C(CCN1CCCCC1)CN1C(=O)c2ccccc2C1=O
- logP [19]: 0.86

SMILES: CN(C)C(=S)N(C)C
- logD [10]: 0.49

SMILES: Clc1ccnc(Cl)n1
- logP [6]: 1.16

SMILES: OCCCCC(F)(F)F
- logP [3]: 1.15

SMILES: CCN(CC)c1nc(Cl)nc(Cl)n1
- logP [6]: 2.17

SMILES: NNc1nc(NN)nc(N2CCOCC2)n1
- logP [6]: 0.62

SMILES: O=C(CCN1CCCCC1)CN1C(=O)C2CC=CCC2C1=O (configuration not stated)
- logP [19]: 1.44

SMILES: Cc1cccc2c1OP(=O)(OCC1C=CC(n3cc(C)c(=O)[nH]c3=O)O1)OC2 (configuration not stated)
- logD [2]: 0.71

SMILES: CC(C(=O)CCN1CCCCC1)N1C(=O)C2CC=CCC2C1=O (configuration not stated)
- logP [19]: 1.55

SMILES: S=C1CCCCCCCN1
- logP [18]: 1.44

More lines, now with the values ahead:

- logP [4]: 1.67
SMILES: CCCCCNC(=O)Cc1ccc(O)c(OC)c1

- logP [5]: 5.85
SMILES: CCc1ccc2cc3ccccc3cc2c1

- logP [8]: 6.08
SMILES: CCCCCCCCCCCC(=O)OCC(COC(=O)C(C)c1ccc2cc(OC)ccc2c1)OC(=O)CCCCCCCCCCC (configuration not stated)

- logD [11]: 2.6
SMILES: CCCOc1cccc(NC(=O)OCN2CCCCC2)c1

- logP [14]: 2
SMILES: CCSCCCCCCCCCCCC(=O)NC1CC(OC2CC(O)(C(=O)CO)Cc3c(O)c4c(c(O)c32)C(=O)c2c(OC)cccc2C4=O)OC(C)C1O (configuration not stated)

- logP [16]: 5.17
SMILES: COc1ccc(NC(=O)c2cc(-c3sc(NC(=O)C(C)(C)C)nc3C)n(-c3ccc(Br)cc3)n2)cc1

- logP [14]: 2.31
SMILES: CCCCCCCCCCCCCCCCCCCC(=O)N[C@H]1C[C@H](O[C@H]2C[C@](O)(C(=O)CO)Cc3c(O)c4c(c(O)c32)C(=O)c2c(OC)cccc2C4=O)O[C@@H](C)[C@H]1O

- logP [8]: 4.84
SMILES: CCCC(=O)OCC(COC(=O)C(C)c1ccc2cc(OC)ccc2c1)OC(=O)CCC (configuration not stated)

- logP [16]: 4.1
SMILES: COc1cc(Cl)ccc1Cn1nc(-c2sc(NC(=O)C(C)(C)C)nc2C)cc1C(=O)N1CCOCC1

- logD [11]: 2.42
SMILES: CCCOc1ccc(NC(=O)OCN2CCCCC2)cc1

- logD [11]: 3.04
SMILES: CCCCOc1ccc(NC(=O)OCN2CCCCC2)cc1

- logP [5]: 5.24
SMILES: Cc1ccc2c(ccc3ccccc32)c1

- logP [13]: 4.82
SMILES: CCSc1ccc2c(c1)N(CCCN1CCN(C)CC1)c1ccccc1S2

- logP [4]: 3.74
SMILES: CCCCCCCCCCCNC(=O)Cc1ccc(O)c(OC)c1

- logP [8]: 6.39
SMILES: CCCCCCCC/C=C\CCCCCCCC(=O)OCC(COC(=O)C(C)c1ccc2cc(OC)ccc2c1)OC(=O)CCCCCCC/C=C\CCCCCCCC (configuration not stated)

- logP [14]: 1.92
SMILES: CCCCCCCCCC(=O)N[C@H]1C[C@H](O[C@H]2C[C@](O)(C(=O)CO)Cc3c(O)c4c(c(O)c32)C(=O)c2c(OC)cccc2C4=O)O[C@@H](C)[C@H]1O

- logD [7]: 1.54
SMILES: COC1=C(C)C(=O)c2c(c(COC(N)=O)c3n2CCC3OC(C)=O)C1=O (configuration not stated)

- logP [5]: 6.81
SMILES: c1ccc2cc3cc4c(ccc5ccccc54)cc3cc2c1

- logP [14]: 1.94
SMILES: CCCCCCCCCCCCCC(=O)N[C@H]1C[C@H](O[C@H]2C[C@](O)(C(=O)CO)Cc3c(O)c4c(c(O)c32)C(=O)c2c(OC)cccc2C4=O)O[C@@H](C)[C@H]1O

- logP [8]: 6.28
SMILES: CCCCCCCCCCCCCCCC(=O)OCC(COC(=O)C(C)c1ccc2cc(OC)ccc2c1)OC(=O)CCCCCCCCCCCCCCC (configuration not stated)

- logP [16]: 4.55
SMILES: C=CCn1nc(-c2sc(NC(=O)C(C)(C)C)nc2C)cc1C(=O)Nc1ccc(OC)cc1

- logD [7]: 1.64
SMILES: CCn1c(C)c(COC(=O)NCCO)c2c1C(=O)C(C)=C(OC)C2=O

- logP [16]: 5.33
SMILES: COc1ccc(NC(=O)c2cc(-c3sc(NC(=O)C(C)(C)C)nc3C)nn2Cc2ccc(Cl)cc2OC)cc1

- logP [8]: 5.68
SMILES: CCCCCC(=O)OCC(CCOC(=O)c1ccc2cc(OC)ccc2c1)OC(=O)CCCCC (configuration not stated)

- logP [16]: 4.82
SMILES: Cc1nc(NC(=O)C(C)(C)C)sc1-c1cc(C(=O)NCc2ccccc2)n(Cc2ccccc2)n1

- logP [20]: -2.16
SMILES: COC1(NC(=O)CSc2nnc(C)s2)C(=O)N2C(C(=O)O)=C(COC(N)=O)CSC21 (configuration not stated)

- logD [11]: 2.39
SMILES: CCCCOc1ccccc1NC(=O)OCN1CCCCC1

- logP [14]: 2.17
SMILES: CCCCCCCCCCCCCCCCCC(=O)N[C@H]1C[C@H](O[C@H]2C[C@](O)(C(=O)CO)Cc3c(O)c4c(c(O)c32)C(=O)c2c(OC)cccc2C4=O)O[C@@H](C)[C@H]1O

- logP [20]: -1.99
SMILES: COC1(NC(=O)CSc2[nH]cnc3ncnc2-3)C(=O)N2C(C(=O)O)=C(COC(N)=O)CSC21 (configuration not stated)

- logP [13]: 4.4
SMILES: COc1ccc2c(c1)N(CC(C)CN(C)C)c1ccccc1S2 (configuration not stated)

- logP [20]: -1.76
SMILES: CCCSCC(=O)NC1(OC)C(=O)N2C(C(=O)O)=C(COC(N)=O)CSC21 (configuration not stated)

- logP [20]: -1.57
SMILES: CCCCSCC(=O)NC1(OC)C(=O)N2C(C(=O)O)=C(COC(N)=O)CSC21 (configuration not stated)

- logP [15]: 0.79
SMILES: CCCC(=O)Nc1n[nH]c(NC(=O)CCC)n1

- logP [4]: 3.31
SMILES: CCCCCCCCC(=O)NCc1cccc(OC)c1

- logP [20]: -1.31
SMILES: CCCCCSCC(=O)NC1(OC)C(=O)N2C(C(=O)O)=C(COC(N)=O)CSC21 (configuration not stated)
